For one assay, the system named is Cryptococcus neoformas. Nature of the assay: Antifungal screening, diffusion agar technique. The note with it: RCMB0049001; Cryptococcus neoformas (RCMB 0049001); well 6.0 mm, 100 μL tested; three replicates; ketoconazole 100 μg/mL. It is filed as cell-based. How it is done: (§1) The complexes were tested in vitro using a diffusion agar technique; well diameter: 6.0 mm (100 μL tested) on four fungi (Aspergillus fumigatus (RCMB 002008), Candida albicans (RCMB 005003 (1) ATCC 10231), Cryptococcus neoformas (RCMB 0049001) and Syncephalastrum racemosum (RCMB 016001 (1)). The positive control was a fungicide (ketoconazole, 100 μg/mL) as well as four bacteria, two Gram-positive strains (Staphylococcus aureus (ATCC 25923) and Bacillus subtilis (RCMB 015 (1) NRRL B-543)), and two Gram-negative strains (Escherichia coli (ATCC 25922) and Proteus Vulgaris (RCMB 004 (1) ATCC 13315)). The positive control was Streptococcus (gentamycin, 4 μg/mL). The inhibitory activity of a compound against an organism is indicated by a clear area around the disc.

Assay [1] has as its system Syncephalastrum racemosum. Description: Antifungal screening, diffusion agar technique. It counts as cell-based. Particulars: RCMB016001; Syncephalastrum racemosum (RCMB 016001); well 6.0 mm, 100 μL tested; three replicates; ketoconazole 100 μg/mL. How it is done:
as §1

The next assay deals with Aspergillus fumigatus. Description: Antifungal screening, diffusion agar technique. The note with it: RCMB002008; Aspergillus fumigatus (RCMB 002008); well 6.0 mm, 100 μL tested; three replicates; ketoconazole 100 μg/mL. It is filed as cell-based. How it is done: as §1
Another assay relates to Candida albicans. Description: Antifungal screening, diffusion agar technique. The note with it: ATCC10231; Candida albicans (ATCC 10231); well 6.0 mm, 100 μL tested; three replicates; ketoconazole 100 μg/mL. It counts as cell-based. How it is done:
as §1

The test system of another assay is Proteus vulgaris. Nature of the assay: Antibacterial screening, diffusion agar technique. It is filed as cell-based. The note with it: Proteus vulgaris (ATCC 13315), Gram-negative; well 6.0 mm, 100 μL tested; three replicates; gentamycin 4 μg/mL. How it is done:
as §1

In the next assay the test system is Bacillus subtilis. Description: Antibacterial screening, diffusion agar technique. It counts as cell-based. The note with it: Bacillus subtilis (NRRL B-543), Gram-positive; well 6.0 mm, 100 μL tested; three replicates; gentamycin 4 μg/mL. How it is done: as §1
Another assay has as its system Staphylococcus aureus. Nature of the assay: Antibacterial screening, diffusion agar technique. The note with it: Staphylococcus aureus (ATCC 25923), Gram-positive; well 6.0 mm, 100 μL tested; three replicates; gentamycin 4 μg/mL. It is filed as cell-based. How it is done: as §1
The next assay deals with Escherichia coli. Description: Antibacterial screening, diffusion agar technique. It counts as cell-based. Particulars: Escherichia coli (ATCC 25922), Gram-negative; well 6.0 mm, 100 μL tested; three replicates; gentamycin 4 μg/mL. How it is done:
as §1

Assay [2] in a line: DPPH free radical scavenging assay. The note with it: DPPH 0.004% w/v in methanol, absorbance 515 nm, 16 min, three replicates. How it is done:
The antioxidant activity of the extract was determined at the Regional Center for Mycology and Biotechnology (RCMB) at Al-Azhar University by the DPPH free radical scavenging assay in triplicate, and average values were considered.
Freshly prepared (0.004% w/v) methanol solution of 2,2-diphenyl-1-picrylhydrazyl (DPPH) radical was prepared and stored at 10 °C in the dark. A methanol solution of the test compound was prepared. About 40 uL aliquot of the methanol solution was added to 3 mL of DPPH solution. Absorbance measurements were recorded immediately with a UV-visible spectrophotometer (Milton Roy, Spectronic 1201). The decrease in absorbance at 515 nm was determined continuously, with data being recorded at 1 min intervals until the absorbance stabilized (16 min). The absorbance of the DPPH radical without antioxidant (control) and the reference compound ascorbic acid were also measured. All the determinations were performed in three replicates and averaged. The percentage inhibition (PI) of the DPPH radical was calculated according to the formula:PI = [{(AC − AT)/AC} × 100] where AC = absorbance of the control at t = 0 min and AT = absorbance of the sample + DPPH at t = 16 min. A 50% inhibitory concentration (IC50) or the concentration required for 50% DPPH radical scavenging activity was calculated.

The subject of assay [3] is A-549 cells (human lung cancer cell line). Nature of the assay: Cytotoxicity against A-549 cells (crystal violet colorimetric viability, 72 h). It counts as cell-based. The note with it: A-549 human lung cancer cell line, 72 h exposure, average of three independent experiments. How it is done:
Cancer is a type of malignant disease in which a group of cells appears to grow in an irregular pattern. The only way to treat this is through surgical intervention or chemotherapy, both of which have negative side effects. Although platinum-based complexes such as cis-platin have been used to treat cancer, it is not effective, so in vitro tests for complexes of manganese, cobalt, copper, chromium, and palladium were conducted against two cancer lines, respectively. A-549 and MRC-5 cells were used as test subjects for the cytotoxic activity of Schiff base and aminopyrimidyl complexes in the concentration range of […]. […] As the concentration of the complexes increased, cell viability decreased (Figure 10).
Figure 10 (a) A-549. The dose-response curves of the cytotoxicity of compounds (1–6). Cells were exposed to different concentrations of the compounds for 72 h. Cell viability was determined by a colorimetric method. (b) MRC-5cell lines. The dose-response curves of the cytotoxicity of compounds (1–6) Cells were exposed to different concentrations of the compounds for 72 h. Cell viability was determined by a colorimetric method.
A-549 cells (human Lung cancer cell line) were obtained from VACSERA Tissue Culture Unit.
It is composed of 0.5% (w/v) crystal violet and 50% methanol then made up to volume with ddH2O and filtered through a Whatmann No.1 filter paper. […]

In brackets after ≈: the same amount, converted by molar mass.

Consider `CC(=O)N1CCN(c2ccc(OCC3COC(Cn4ccnc4)(c4ccc(Cl)cc4Cl)O3)cc2)CC1` (stereo not shown) [Ketoconazole, reference compound], for which the zone of inhibition at 100 µg/mL turned out to be 24.9 mm in the assay on Cryptococcus neoformas, 15.3 mm in assay [1], 17.4 mm with Aspergillus fumigatus and 20.4 mm in the assay on Candida albicans.
As for Gentamycin [reference compound], the “Mean Zone of Inhibition” value in the assay with Proteus vulgaris stood at 25.20 mm; in the assay with Bacillus subtilis it was 25.93 mm; in the assay with Staphylococcus aureus, 24.33 mm; with Escherichia coli, 29.83 mm.
Take `O=C1O[C@H]([C@@H](O)CO)C(O)=C1O` [Ascorbic acid, reference compound]: the “IC50 (antioxidant activity, DPPH radical scavenging)” value in [2] turned out to be 10210 ± 770 µg/mL (≈ 58 mM).
In the case of `N.N.[Cl][Pt][Cl]` [cisplatin, reference compound], the “IC50 Value” in assay [3] amounted to 7.11 µg/mL.

For the origin of these results see PMC10058022, “Physico-Chemical Study of Mn(II), Co(II), Cu(II), Cr(III), and Pd(II) Complexes with Schiff-Base and Aminopyrimidyl Derivatives and Anti-Cancer, Antioxidant, Antimicrobial Applications” (Molecules, 2023).
